We go through four compounds from patent US12680078B2, “Differentiation of pluripotent stem cells and cardiac progenitor cells into striated cardiomyocyte fibers using laminins LN-511, LN-521 and LN-221” (National University of Singapore, priority 2013, dated 2026).

Where a name gives a salt, the structure may show the parent alone. Read-outs that look alike come from different tables or passages of the source.

Test [1] concerns cardiomyocytes. The test can be described thus: Multi-electrode assay (MEA) of cellular responses to adrenergic stimulation. Type of test: cell-based, human. The settings on record: upon exposure. The protocol: To further characterize the functionality of the cardiomyocytes, single cell patch clamp and multi-electrode assay (MEA) were utilized to measure their action potential. 13.60% mimicked the nodal subtype, 22.20% mimicked the atrial subtype, and 64.20% mimicked the heart ventricle subtype (see FIG. 8(C)).
(§1) Cellular responses to adrenergic stimulation were also tested with MEA.

The test system of test [2] is cardiomyocytes. The test can be described thus: Cell viability assay (ATP content) on hESC-derived cardiomyocytes. Type of test: cell-based. The settings on record: Homo sapiens, Cardiomyocyte, read-out: EC50 (cell viability, ATP content). The protocol: FIG. 12G is a graph showing ATP content (relative light units×1000) versus log concentration of valinomycin. The y-axis runs from 0 to 5 in increments of 1. The x-axis runs from −7 to −3 in increments of 1.
FIG. 12H is a graph showing ATP content (relative light units×1000) versus log concentration of emetine dihydrochloride. The y-axis runs from 0 to 6 in increments of 2. The x-axis runs from −8 to −3 in increments of 1.
as §1

Take `CC(C)NCC(O)c1ccc(NS(C)(=O)=O)cc1` (stereo not shown) [Sotalol]: the “corrected field potential duration (cFPD)” value in the test on cardiomyocytes [1] is listed as “shortened corrected field potential duration (cFPD)”.

The EC50 is the concentration giving half of the maximal effect. For the compound `CC[C@H]1CN2CCc3cc(OC)c(OC)cc3[C@@H]2C[C@@H]1C[C@H]1NCCc2cc(OC)c(OC)cc21` [emetine dihydrochloride], the concentration for a half-maximal effect (EC50) in the test on cardiomyocytes [2] (hESC-derived cardiomyocytes, FIG. 12G/12H) turned out to be 6.08 µM.

For the compound `CC(C)NCC(O)c1ccc(O)c(O)c1` (stereo not shown) [isoproterenol], in the test with cardiomyocytes [1], the heart rate entry is “increased heart rate”.

Take `CC(C)[C@@H]1NC(=O)[C@H](C)OC(=O)[C@@H](C(C)C)NC(=O)[C@@H](C(C)C)OC(=O)[C@H](C(C)C)NC(=O)[C@H](C)OC(=O)[C@@H](C(C)C)NC(=O)[C@@H](C(C)C)OC(=O)[C@H](C(C)C)NC(=O)[C@H](C)OC(=O)[C@@H](C(C)C)NC(=O)[C@@H](C(C)C)OC1=O` [valinomycin]: the 50% effective concentration (EC50) in the test on cardiomyocytes [2] was found to be 13.1 µM.
